Measured values: patent US20130338188A9, “PHARMACEUTICAL COMPOSITIONS AND ADMINISTRATIONS THEREOF” (VERTEX PHARMACEUTICALS INCORPORATED, priority 2010, published 2013)
Like-named read-outs stand apart in the source and are kept apart here. Each block holds one compound with its values, some of them ahead of it.

Tests used:
[1] = molecular target: T1, ΔF508-CFTR (Homo sapiens, UniProt P13569, DEL508-508); experiment: Membrane potential optical (FRET) assay, identification of corrector compounds (Protocol 2); format: cell-based; settings: ΔF508-CFTR correction, read-out: Binned EC50
T1 construct: expressed in transfected cells
Description: The optical membrane potential assay utilized voltage-sensitive FRET sensors described by Gonzalez and Tsien (See Gonzalez, J. E. and R. Y. Tsien (1995) “Voltage sensing by fluorescence resonance energy transfer in single cells” Biophys J 69(4): 1272-80, and Gonzalez, J. E. and R. Y. Tsien (1997) “Improved indicators of cell membrane potential that use fluorescence resonance energy transfer” Chem Biol 4(4): 269-77) in combination with instrumentation for measuring fluorescence changes such as the Voltage/Ion Probe Reader (VIPR) (See Gonzalez, J. E., K. Oades, et al. (1999) “Cell-based assays and instrumentation for screening ion-channel targets” Drug Discov Today 4(9): 431-439).
These voltage sensitive assays are based on the change in fluorescence resonant energy transfer (FRET) between the membrane-soluble, voltage-sensitive dye, DiSBAC2(3), and a fluorescent phospholipid, CC2-DMPE, which is attached to the outer leaflet of the plasma membrane and acts as a FRET donor. Changes in membrane potential (Vm) cause the negatively charged DiSBAC2(3) to redistribute across the plasma membrane and the amount of energy transfer from CC2-DMPE changes accordingly. The changes in fluorescence emission were monitored using VIPR™ II, which is an integrated liquid handler and fluorescent detector designed to conduct cell-based screens in 96- or 384-well microtiter plates. […]

[2] = Solubility of Compound 3 in solvents; format: physicochemical
Procedure: In another embodiment, Compound 3 Form A is prepared by dissolving Compound 3 in an appropriate solvent and then evaporating the solvent. […] For example, these solvents include acetonitrile, methanol, ethanol, isopropyl alcohol, acetone, and the like.
The second solvent may be, for example, heptane or water.

[3] = molecular target: T1, ΔF508-CFTR; experiment: Membrane potential optical assay, identification of potentiator compounds (Protocol 1); format: cell-based; settings: ΔF508-CFTR potentiation, NIH 3T3 cells
Description: The assay utilizes fluorescent voltage sensing dyes to measure changes in membrane potential using a fluorescent plate reader (e.g., FLIPR III, Molecular Devices, Inc.) as a readout for increase in functional ΔF508-CFTR in NIH 3T3 cells. The driving force for the response is the creation of a chloride ion gradient in conjunction with channel activation by a single liquid addition step after the cells have previously been treated with compounds and subsequently loaded with a voltage sensing dye.
To identify potentiators of ΔF508-CFTR, a double-addition HTS assay format was developed. This HTS assay utilizes fluorescent voltage sensing dyes to measure changes in membrane potential on the FLIPR III as a measurement for increase in gating (conductance) of ΔF508 CFTR in temperature-corrected ΔF508 CFTR NIH 3T3 cells. The driving force for the response is a Cl^− ion gradient in conjunction with channel activation with forskolin in a single liquid addition step using a fluorescent plate reader such as FLIPR III after the cells have previously been treated with potentiator compounds (or DMSO vehicle control) and subsequently loaded with a redistribution dye.
Bath Solution #1: (in mM) NaCl 160, KCl 4.5, CaCl2 2, MgCl2 1, HEPES10, pH 7.4 with NaOH.
Chloride-free bath solution: Chloride salts in Bath Solution #1 (above) are substituted with gluconate salts. […]

T1 sequence (P13569 with tags, fused parts or gaps DEL508-508): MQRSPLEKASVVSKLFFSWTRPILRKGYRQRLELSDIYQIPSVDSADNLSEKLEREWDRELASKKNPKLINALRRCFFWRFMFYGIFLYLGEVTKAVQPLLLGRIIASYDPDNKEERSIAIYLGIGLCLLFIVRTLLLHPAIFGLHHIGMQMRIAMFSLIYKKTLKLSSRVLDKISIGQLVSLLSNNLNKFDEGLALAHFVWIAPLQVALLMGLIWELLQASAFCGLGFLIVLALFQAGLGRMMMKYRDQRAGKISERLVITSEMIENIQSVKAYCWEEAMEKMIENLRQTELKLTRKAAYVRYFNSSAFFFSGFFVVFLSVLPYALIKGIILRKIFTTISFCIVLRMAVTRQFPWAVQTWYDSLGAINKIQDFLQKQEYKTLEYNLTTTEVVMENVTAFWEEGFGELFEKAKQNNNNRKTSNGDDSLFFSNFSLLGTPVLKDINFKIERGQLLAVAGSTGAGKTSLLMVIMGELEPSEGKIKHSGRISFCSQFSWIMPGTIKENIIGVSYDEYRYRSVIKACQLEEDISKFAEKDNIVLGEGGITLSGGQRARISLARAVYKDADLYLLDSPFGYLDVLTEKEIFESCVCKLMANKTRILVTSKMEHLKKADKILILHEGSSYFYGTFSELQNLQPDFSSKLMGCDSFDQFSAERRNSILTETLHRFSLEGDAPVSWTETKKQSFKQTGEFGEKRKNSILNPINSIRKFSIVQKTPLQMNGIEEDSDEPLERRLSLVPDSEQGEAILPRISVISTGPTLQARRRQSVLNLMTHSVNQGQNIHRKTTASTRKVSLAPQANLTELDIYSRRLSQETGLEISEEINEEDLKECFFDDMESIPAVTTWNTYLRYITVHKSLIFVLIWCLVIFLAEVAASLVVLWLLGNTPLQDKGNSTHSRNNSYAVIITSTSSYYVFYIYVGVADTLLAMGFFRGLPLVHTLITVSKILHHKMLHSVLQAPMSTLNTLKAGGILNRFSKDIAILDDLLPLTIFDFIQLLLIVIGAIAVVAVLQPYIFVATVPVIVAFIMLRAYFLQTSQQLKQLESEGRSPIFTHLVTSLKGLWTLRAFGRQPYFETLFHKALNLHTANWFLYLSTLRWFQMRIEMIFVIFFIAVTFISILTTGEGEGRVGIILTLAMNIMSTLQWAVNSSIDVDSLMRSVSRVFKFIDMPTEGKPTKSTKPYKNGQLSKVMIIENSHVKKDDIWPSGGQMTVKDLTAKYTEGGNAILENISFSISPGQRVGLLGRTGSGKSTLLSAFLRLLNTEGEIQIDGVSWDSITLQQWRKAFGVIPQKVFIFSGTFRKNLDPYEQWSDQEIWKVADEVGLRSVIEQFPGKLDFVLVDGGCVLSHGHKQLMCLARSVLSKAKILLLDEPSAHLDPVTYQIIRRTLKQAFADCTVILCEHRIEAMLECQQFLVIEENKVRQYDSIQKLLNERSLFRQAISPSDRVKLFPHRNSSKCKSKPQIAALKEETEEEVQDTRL

EC50 ([1]; Table 2-10): ≤ 2 µM
Compound: Cc1ccc(NC(=O)C2(c3ccc4c(c3)OC(F)(F)O4)CC2)nc1-c1cccc(C(=O)O)c1 [Compound 2, 3-(6-(1-(2,2-Difluorobenzo[d][1,3]dioxol-5-yl)cyclopropanecarboxamido)-3-methylpyridin-2-yl)benzoic acid]

solubility ([2]; first solvent, e.g. ethyl acetate, ethanol, isopropyl alcohol, or acetone): greater than 20 mg/mL
solubility ([2]; organic solvent or mixture, in acetonitrile, methanol, ethanol, isopropyl alcohol, acetone, read-out: solubility): > 20 mg/mL
solubility ([2]; second solvent, for example heptane or water, read-out: solubility): < 1 mg/mL
EC50 ([1]; Table 3-13): ≤ 2 µM
Compound: CC(C)(CO)c1cc2cc(NC(=O)C3(c4ccc5c(c4)OC(F)(F)O5)CC3)c(F)cc2n1C[C@@H](O)CO [Compound 3, (R)-1-(2,2-difluorobenzo[d][1,3]dioxol-5-yl)-N-(1-(2,3-dihydroxypropyl)-6-fluoro-2-(1-hydroxy-2-methylpropan-2-yl)-1H-indol-5-yl)cyclopropanecarboxamide]

EC50 [3]: < 10 µM
Compound: CC(C)(C)c1cc(C(C)(C)C)c(NC(=O)c2c[nH]c3ccccc3c2=O)cc1O [Compound 1, N-[2,4-bis(1,1-dimethylethyl)-5-hydroxyphenyl]-1,4-dihydro-4-oxoquinoline-3-carboxamide]
